{"source": "patent US8952024B2", "about": "“Herbicidal pyrimidone derivatives” (E I du Pont de Nemours and Company, priority 2009, dated 2015)", "assay_type_in_all_cases": "in vivo", "key": {"[1]": {"test_system": "morningglory (Ipomoea spp.)", "assay": "Test A pre-/postemergence plant response", "outline": "(§1)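 Seeds planted in loam soil/sand blend; test chemicals in non-phytotoxic solvent mixture with surfactant applied as directed soil spray preemergence and, concurrently, postemergence to plants 2–10 cm tall at one- to two-leaf stage. Greenhouse ~10 days; visual injury vs untreated controls, 0 (no effect) to 100 (complete control).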"}, "[2]": {"test_system": "pigweed (Amaranthus retroflexus)", "assay": "Test A pre-/postemergence plant response", "outline": "as §1"}, "[3]": {"test_system": "johnsongrass (Sorghum halepense)", "assay": "Test B pre-/postemergence plant response", "outline": "(§2)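 Test compounds, formulated in a non-phytotoxic solvent mixture with surfactant, are applied to the soil surface (loam and sand blend) right after seeding, or sprayed over plants at the 1- to 4-leaf stage grown in peat moss/vermiculite medium. After 13 to 15 days under glasshouse conditions, each species is scored visually from 0 (no effect) to 100 (complete control) against controls.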"}, "[4]": {"test_system": "morningglory (Ipomoea coccinea)", "assay": "Test B pre-/postemergence plant response", "outline": "as §2"}, "[5]": {"test_system": "giant foxtail (Setaria faberii)", "assay": "Test B pre-/postemergence plant response", "outline": "as §2"}, "[6]": {"test_system": "woolly cupgrass (Eriochloa villosa)", "assay": "Test B pre-/postemergence plant response", "outline": "as §2"}, "[7]": {"test_system": "wheat (Triticum aestivum)", "assay": "Test B pre-/postemergence plant response", "outline": "as §2"}, "[8]": {"test_system": "goosegrass (Eleusine indica)", "assay": "Test B pre-/postemergence plant response", "outline": "as §2"}, "[9]": {"test_system": "ducksalad (Heteranthera limosa)", "assay": "Test B flooded paddy test", "conditions": "for Plant response rating, Ducksalad: Flood (flooded paddy test), 13 to 15 days", "outline": "(§3)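 Seedlings reaching 2 leaves are flooded 3 cm deep; test material is delivered to that water, which stays at the same depth. Plants remain in a greenhouse 13–15 days and are then scored by eye versus controls from 0 to 100.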"}, "rice (Oryza sativa)": {"test_system": "rice (Oryza sativa)", "assay": "Test B flooded paddy test", "conditions": "for Plant response rating, Rice: Flood (flooded paddy test), 13 to 15 days", "outline": "as §3"}, "[10]": {"test_system": "umbrella sedge (Cyperus difformis)", "assay": "Test B flooded paddy test", "conditions": "for Plant response rating, Sedge, Umbrella: Flood (flooded paddy test), 13 to 15 days", "outline": "as §3"}, "[11]": {"test_system": "barnyardgrass (Echinochloa crus-galli)", "assay": "Test B flooded paddy test", "conditions": "for Plant response rating, Barnyardgrass: Flood (flooded paddy test), 13 to 15 days", "outline": "as §3"}, "[12]": {"conditions": "Postemergence, 125 g ai/ha, visual injury, 0 to 100 scale (0 no effect, 100 complete control), approx. ten days"}, "[13]": {"conditions": "Postemergence, 500 g ai/ha, 0 to 100 scale, 0 = no effect, 100 = complete control, approx. ten days"}, "[14]": {"conditions": "Preemergence, 125 g ai/ha, 0 to 100 scale, 0 = no effect, 100 = complete control"}, "[15]": {"conditions": "Preemergence, 500 g ai/ha, visual injury, 0 to 100 scale (0 no effect, 100 complete control), approx. ten days"}, "[16]": {"conditions": "250 g ai/ha, Preemergence, 0 to 100 scale"}, "[17]": {"conditions": "Postemergence, 62 g ai/ha, scale 0 (no effect) to 100 (complete control), 13 to 15 days"}, "[18]": {"conditions": "Postemergence, 125 g ai/ha, visual rating after 13 to 15 days, scale 0 (no effect) to 100 (complete control)"}, "[19]": {"conditions": "Postemergence, 250 g ai/ha, scale 0 to 100"}, "[20]": {"conditions": "Preemergence, 31 g ai/ha, scale 0 to 100 (0 no effect, 100 complete control)"}, "[21]": {"conditions": "Preemergence, 62 g ai/ha, scale 0 to 100, 0 no effect, 100 complete control"}, "[22]": {"conditions": "Preemergence, 125 g ai/ha, 0 to 100 scale"}, "[23]": {"conditions": "Postemergence, 31 g ai/ha, scale 0 to 100 (0 no effect, 100 complete control)"}, "[24]": {"conditions": "250 g ai/ha, flooded paddy test, visual rating on 0 to 100 scale (0 no effect, 100 complete control) after 13 to 15 days"}, "[25]": {"conditions": "31 g ai/ha, scale of 0 to 100 where 0 is no effect and 100 is complete control"}, "[26]": {"conditions": "62 g ai/ha, scale 0 to 100, 0 is no effect, 100 is complete control"}, "[27]": {"conditions": "125 g ai/ha, scale 0 to 100, 0 is no effect, 100 is complete control"}}}
{"smiles": "O=C1CCCC(O)=C1C(=O)c1cnc(-c2cccc(Cl)c2)n(-c2ccccc2)c1=O", "note": "[Compound 34]", "values": [{"measurement": "Morningglory plant response rating", "setting": "[1]; [12]", "result": 80}, {"measurement": "Plant response rating, Morningglory", "setting": "[1]; [13]", "result": 100}, {"measurement": "Plant response rating, Morningglory", "setting": "[1]; [14]", "result": 10}, {"measurement": "Plant response rating, Morningglory", "setting": "[1]; [15]", "result": 60}, {"measurement": "Pigweed plant response rating", "setting": "[2]; [12]", "result": 100}, {"measurement": "Plant response rating, Pigweed", "setting": "[2]; [13]", "result": 100}, {"measurement": "Plant response rating, Pigweed", "setting": "[2]; [14]", "result": 90}, {"measurement": "Plant response rating, Pigweed", "setting": "[2]; [15]", "result": 100}, {"measurement": "Plant response rating, Johnsongrass", "setting": "[3]; [16]", "result": 100}, {"measurement": "Plant response rating, Johnsongrass", "setting": "[3]; [17]", "result": 90}, {"measurement": "Plant response rating, Johnsongrass", "setting": "[3]; [18]", "result": 95}, {"measurement": "Johnsongrass plant response rating", "setting": "[3]; [19]", "result": 100}, {"measurement": "Plant response rating, Johnsongrass", "setting": "[3]; [20]", "result": 20}, {"measurement": "Plant response rating, Johnsongrass", "setting": "[3]; [21]", "result": 75}, {"measurement": "Johnsongrass plant response rating", "setting": "[3]; [22]", "result": 98}, {"measurement": "Plant response rating, Morningglory", "setting": "[4]; [16]", "result": 98}, {"measurement": "Plant response rating, Morningglory", "setting": "[4]; [17]", "result": 80}, {"measurement": "Plant response rating, Morningglory", "setting": "[4]; [18]", "result": 85}, {"measurement": "Plant response rating, Morningglory", "setting": "[4]; [20]", "result": 0}, {"measurement": "Plant response rating, Morningglory", "setting": "[4]; [21]", "result": 0}, {"measurement": "Morningglory plant response rating", "setting": "[4]; [22]", "result": 75}, {"measurement": "Plant response rating, Foxtail, Giant", "setting": "[5]; [16]", "result": 100}, {"measurement": "Plant response rating, Foxtail, Giant", "setting": "[5]; [23]", "result": 85}, {"measurement": "Plant response rating, Foxtail, Giant", "setting": "[5]; [17]", "result": 90}, {"measurement": "Plant response rating, Foxtail, Giant", "setting": "[5]; [18]", "result": 95}, {"measurement": "Foxtail, Giant plant response rating", "setting": "[5]; [19]", "result": 95}, {"measurement": "Plant response rating, Foxtail, Giant", "setting": "[5]; [20]", "result": 15}, {"measurement": "Plant response rating, Foxtail, Giant", "setting": "[5]; [21]", "result": 55}, {"measurement": "Foxtail, Giant plant response rating", "setting": "[5]; [22]", "result": 90}, {"measurement": "Plant response rating, Cupgrass, Woolly", "setting": "[6]; [16]", "result": 100}, {"measurement": "Plant response rating, Cupgrass, Woolly", "setting": "[6]; [23]", "result": 80}, {"measurement": "Plant response rating, Cupgrass, Woolly", "setting": "[6]; [17]", "result": 80}, {"measurement": "Plant response rating, Cupgrass, Woolly", "setting": "[6]; [18]", "result": 90}, {"measurement": "Cupgrass, Woolly plant response rating", "setting": "[6]; [19]", "result": 95}, {"measurement": "Plant response rating, Cupgrass, Woolly", "setting": "[6]; [20]", "result": 100}, {"measurement": "Plant response rating, Cupgrass, Woolly", "setting": "[6]; [21]", "result": 100}, {"measurement": "Cupgrass, Woolly plant response rating", "setting": "[6]; [22]", "result": 100}, {"measurement": "Plant response rating, Wheat", "setting": "[7]; [16]", "result": 0}, {"measurement": "Plant response rating, Wheat", "setting": "[7]; [17]", "result": 10}, {"measurement": "Plant response rating, Wheat", "setting": "[7]; [18]", "result": 35}, {"measurement": "Plant response rating, Wheat", "setting": "[7]; [21]", "result": 0}, {"measurement": "Wheat plant response rating", "setting": "[7]; [22]", "result": 0}, {"measurement": "Plant response rating, Goosegrass", "setting": "[8]; [16]", "result": 100}, {"measurement": "Plant response rating, Goosegrass", "setting": "[8]; [17]", "result": 80}, {"measurement": "Plant response rating, Goosegrass", "setting": "[8]; [18]", "result": 90}, {"measurement": "Goosegrass plant response rating", "setting": "[8]; [19]", "result": 95}, {"measurement": "Plant response rating, Goosegrass", "setting": "[8]; [20]", "result": 95}, {"measurement": "Goosegrass plant response rating", "setting": "[8]; [22]", "result": 100}, {"measurement": "Plant response rating, Flood, Ducksalad", "setting": "[9]; [24]", "result": 65}, {"measurement": "Plant response rating, Ducksalad", "setting": "[9]; [25]", "result": 0}, {"measurement": "Plant response rating, Ducksalad", "setting": "[9]; [26]", "result": 0}, {"measurement": "Plant response rating, Ducksalad", "setting": "[9]; [27]", "result": 30}, {"measurement": "Plant response rating, Flood, Rice", "setting": "rice (Oryza sativa); [24]", "result": 0}, {"measurement": "Plant response rating, Rice", "setting": "rice (Oryza sativa); [25]", "result": 0}, {"measurement": "Plant response rating, Rice", "setting": "rice (Oryza sativa); [26]", "result": 0}, {"measurement": "Plant response rating, Rice", "setting": "rice (Oryza sativa); [27]", "result": 0}, {"measurement": "Plant response rating, Flood, Sedge, Umbrella", "setting": "[10]; [24]", "result": 40}, {"measurement": "Plant response rating, Sedge, Umbrella", "setting": "[10]; [25]", "result": 0}, {"measurement": "Plant response rating, Sedge, Umbrella", "setting": "[10]; [26]", "result": 0}, {"measurement": "Plant response rating, Sedge, Umbrella", "setting": "[10]; [27]", "result": 0}, {"measurement": "Plant response rating, Flood, Barnyardgrass", "setting": "[11]; [24]", "result": 0}, {"measurement": "Plant response rating, Barnyardgrass", "setting": "[11]; [25]", "result": 0}, {"measurement": "Plant response rating, Barnyardgrass", "setting": "[11]; [26]", "result": 0}, {"measurement": "Plant response rating, Barnyardgrass", "setting": "[11]; [27]", "result": 0}]}
